The target of the experiment is T1, BACE1 (β-site APP-cleaving enzyme 1) (Homo sapiens, UniProt P56817).
T1 construct: human recombinant BACE1, baculovirus-expressed
As to the kind of experiment: FRET enzyme assay with recombinant BACE1; Dixon and Lineweaver-Burk kinetics (Ki […]). It counts as biochemical.

T1 sequence (P56817 46-457): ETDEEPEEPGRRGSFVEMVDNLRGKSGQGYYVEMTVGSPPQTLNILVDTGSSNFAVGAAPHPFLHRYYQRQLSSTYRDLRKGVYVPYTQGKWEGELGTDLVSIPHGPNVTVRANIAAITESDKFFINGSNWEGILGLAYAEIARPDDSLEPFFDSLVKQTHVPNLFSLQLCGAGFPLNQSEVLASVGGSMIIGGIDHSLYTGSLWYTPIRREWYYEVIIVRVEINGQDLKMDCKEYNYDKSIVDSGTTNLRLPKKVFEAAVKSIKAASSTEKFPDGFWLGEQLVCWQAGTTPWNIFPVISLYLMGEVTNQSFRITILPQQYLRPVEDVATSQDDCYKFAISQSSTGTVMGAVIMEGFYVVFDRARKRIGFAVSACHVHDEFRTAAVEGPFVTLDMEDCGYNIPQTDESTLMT

Regarding `COc1ccc(-c2coc3cc(O)cc(O)c3c2=O)cc1` [Biochanin A, 5,7-dihydroxy-3-(4-methoxyphenyl)chromen-4-one], the IC50 was determined as 28 µM.

By IC50 is commonly meant the point on the concentration scale where inhibition reaches its midpoint.

The record behind these values is PMC5084024, “The Identification of Biochanin A as a Potent and Selective β-Site App-Cleaving Enzyme 1 (Bace1) Inhibitor” (Nutrients, 2016).
